Data reported in patent US20240165094A1, “METHODS AND COMPOSITIONS FOR TREATING MELANOMA” (INSTITUT NATIONAL DE LA SANTÉ ET DE LA RECHERCHE MÉDICALE, priority 2021, published 2024).

Experiments:
[1] = system: YUMM1.7 Braf-mutant melanoma; assay: Syngenic model of murine YUMM1.7 Braf-mutant melanoma: tumor growth, relapse, survival; type: in vivo, mouse
From the text: FIG. 2. Nintedanib enhances MAPK-targeted therapy efficacy, delays tumor relapse, improves mice survival and normalizes the pro-fibrotic stromal reaction. Kaplan-Meier survival curves of mice treated with vehicle, Nintedanib, MAPK-targeted therapy (BRAFi+MEKi) or MAPK-targeted therapy plus Nintedanib. Log rank (Mantel-Cox) statistical test was used for MAPK-targeted therapy vs MAPK targeted therapy/Nintedanib. ****p<0.0001.
FIG. 4. Nintedanib, but not Pirfenidone, enhances MAPK-targeted therapy efficacy and delays tumor relapse. Mouse YUMM1.7 cells were injected s.c. into syngeneic C57BL/6 mice. When tumor volume reached 100 mm3, mice were administered vehicle, BRAFi+MEKi combination, Nintedanib, Pirfenidone or the triple combinations of BRAFi+MEKi and Nintedanib or BRAFi+MEKi and Pirfenidone. Representative median graphics show tumor growth following treatment (n=3 mice per group). Treatment: Oral gavage 3 times per week. Vemurafenib (BRAFi): 30 mg/kg; Trametinib (MEKi): 0.3 mg/kg; Nintedanib: 50 mg/kg; Pirfenidone: 100 mg/kg. Oral gavage 3 times per week.
Mouse experiments were carried out according to the Institutional Animal Care and the local ethical committee. 4×105 YUMNI1.7 cells were injected in both flanks of C57BL/6 mice. Tumors were measured with caliper and treatments were started when the tumors reached a volume of 0.1 cm3, after randomization of mice into control and test groups. Vemurafenib (30 mg/kg), Trametinib (0.3 mg/kg), and Nintedanib (50 mg/kg) were administered by oral gavage three times per week. Control mice were treated with vehicle only. Animals were sacrificed when the tumors reached a volume of 1 cm3. After animal sacrifice, tumors were dissected, weighed and snap-frozen in liquid nitrogen for RNA or protein extraction and immunofluorescence analysis (embedded in OCT from Tissue-Tek). Tumors for picrosirius red staining were fixed in formalin.

M238P cells = assay: Viability assay (crystal violet staining of attached cells), BRAFi-sensitive parental cells; type: cell-based, human; conditions: 3 days
Protocol: Melanoma cells were cultured in Dulbecco's modified Eagle medium (DMEM) supplemented with 7% FBS (Hyclone) and 1% penicillin/streptomycin. Resistant cells were continuously exposed to 1 μM of Vemurafenib. […] BRAFi (PLX4032, Vemurafenib), MEKi (GSK1120212, Trametinib) and Nintedanib (BIBF1120) were from Selleckem.

M238P melanoma cells = assay: Real-time quantitative PCR gene expression in BRAFi-sensitive cells; type: cell-based, human; conditions: data not shown
Protocol: (§1) Total RNA was extracted from tumors and cell samples with the miRNeasy Mini Kit (Qiagen) according to the manufacturer's instructions.
(§2) 1 μg of extracted RNA from cells was reverse transcribed into cDNA using the Multiscribe reverse transcriptase kit provided by Applied Biosystems. Primers were designed using PrimerBank or adopted from published studies. Gene expression levels were measured using Platinum SYBR Green qPCR Supermix (Fisher Scientific) and Step One thermocycler (Applied Biosystem). Results from qPCR were normalized using the reference gene RPL32 and relative gene expression was quantified with the ΔΔCt method. Heatmaps describing gene expression fold changes were prepared using MeV software. cDNAs from tumors were prepared from 100 ng of RNA using Fluidigm Reverse Transcription Master Mix (Fluidigm PN 100-647297). Following a pre-amplification step (Fluidigm® PreAmp Master Mix and DELTAgene™ Assay kits) and exonuclease I treatment, samples diluted in Eva-Green® Supermix with Low ROX were loaded with primer reaction mixes in 96.96 Dynamic Array™ IFCs. Gene expression was then assessed on a Fluidigm BioMark HD instrument. Data were analyzed with real-time PCR analysis software (Fluidigm Corporation), and presented as relative gene expression according to the ΔΔCt method. Heat maps depicting fold changes of gene expression were prepared using MeV software.

M238R cells [2] = assay: Real-time quantitative PCR gene expression in BRAFi-resistant cells; type: cell-based, human; conditions: data not shown
Protocol: as §1, §2

YUMM 1.7 tumors = assay: ECM remodeling in YUMM1.7 tumors (picrosirius red collagen staining, qPCR of ECM, myofibroblast and pro-fibrotic markers); type: in vivo, mouse; conditions: co-administration of Nintedanib with MAPKi; data not shown
Protocol: as §2, with “Heatmaps describing gene expression fold changes were prepared using MeV software. cDNAs from tumors were prepared from 100 ng of RNA using Fluidigm Reverse Transcription Master Mix (Fluidigm PN 100-647297).” left out, “[…])” for “DELTAgene™ Assay kits)”, “ArrayTM” for “Array™”, “software. Collagen in paraffin-embedded tumors was stained with picrosirius red using standard protocols as described (Girard et al., 2020). Tumor sections were analyzed by polarized light microscopy. Images were acquired under polarized illumination using a light transmission microscope (Zeiss PALM, at 10× magnification). […]” for “software.”

M238R cells [3] = assay: Viability assay (crystal violet staining of attached cells), BRAFi-resistant cells; type: cell-based, human; conditions: 3 days
Protocol: FIG. 1. Nintedanib sensitizes melanoma cells to BRAFi/MEKi therapy and prevents BRAFi/MEKi-driven ECM remodeling. (A) BRAFi-resistant M238R cells were treated with vehicle (Ctrl), Nintedanib (2 μM), Vemurafenib and Trametinib (BRAFi/MEKi, 5 μM) or Vemurafenib/Trametinib (5 μM) plus Nintedanib (2 μM) for 3 days. Cell viability was assessed by crystal violet staining of attached cells. (B) BRAFi-sensitive parental M238P cells were treated with vehicle (Ctrl), Nintedanib (2 μM) Vemurafenib and Trametinib (BRAFi/MEKi, 1 μM) or Vemurafenib/Trametinib (1 μM) plus Nintedanib (2 μM) for 3 days. Cell viability was assessed by crystal violet staining of attached cells. Paired Student t-test has been used for statistical analysis. ****P≤0.0001. Data is represented as mean ±SE from a triplicate representative of at least 3 independent experiments.
The isogenic pair of Vemurafenib-sensitive and -resistant human BRAF-mutated melanoma cells M238 was provided by R. Lo (Nazarian et al., 2010). YUMM1.7 mouse melanoma cells were a kind gift from M. Bosenberg (Meeth et al., 2016). […]
After the indicated treatments, cells were stained with 0.04% crystal violet, 20% ethanol in PBS for 30 min. […] The crystal violet dye is solubilized by 10% acetic acid in PBS and measured by absorbance at 595 nm.

COC(=O)c1ccc2c(c1)NC(=O)/C2=C(\Nc1ccc(N(C)C(=O)CN2CCN(C)CC2)cc1)c1ccccc1 [Nintedanib]
effect on MAPK-targeted therapy efficacy and tumor relapse ([1]; BRAFi/MEKi-treated YUMM1.7 melanoma, n=3, Nintedanib 50 mg/kg or Pirfenidone 100 mg/kg added to Vemurafenib 30 mg/kg + Trametinib 0.3 mg/kg): enhances MAPK-targeted therapy efficacy and prevents tumor relapse | anti-melanoma effect ([1]; YUMM1.7 s.c. in C57BL/6 mice, Nintedanib 50 mg/kg alone, oral gavage three times per week): did not display any anti-melanoma effect | tumor growth ([1]; YUMM1.7 s.c. in C57BL/6 mice, oral gavage three times per week): slightly slowing down tumor growth but not triggering tumor volume decrease | cell survival (viability) (M238P cells; BRAFi-sensitive M238P cells, Nintedanib alone (2 μM)): no effect | effect on the inhibitory effect of BRAFi plus MEKi on cell viability (M238P cells; M238P cells, Nintedanib 2 μM plus Vemurafenib/Trametinib 1 μM): potentiated significantly the inhibitory effect | BRAFi-induced ECM-related signature and myofibroblast markers such as ACTA2, MYL9 and LOXL2 (M238P melanoma cells): strongly attenuated | differentiation marker MITF expression (M238P melanoma cells; under BRAFi): prevented the downregulation | gene expression of phenotypic markers such as PDL1 and NGFR (M238P melanoma cells; under BRAFi): reduced | ECM and fibrotic-like signature (M238R cells [2]; Nintedanib at two different doses): reverted | PDL1 expression (M238R cells [2]): reduced | MAPKi-induced ECM remodeling responses in tumors (YUMM 1.7 tumors): suppressed | cell survival (viability) (M238R cells [3]; BRAFi-resistant M238R cells, Nintedanib alone (2 μM)): no effect | sensitivity to BRAF and MEK co-inhibition (cell viability) (M238R cells [3]; M238R cells, Nintedanib 2 μM plus Vemurafenib/Trametinib 5 μM): restored sensitivity
